Data from the supplement of paper PMC10307832.

Columns and labels:
Assay in all cases: relative viability (nuclei count vs DMSO), 5 days (fraction); higher = more cells survive
EMC-BAC-2 = system: EMC-BAC-2
Procedure, shortened: (§1)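 Lung cancer cell lines, seeded in 1536-well plates, were treated the following day by pin tool with a single drug or with five library-drug doses (not always all listed) in √10 steps on top of a fixed anchor-drug dose. Cells were fixed and nuclei stained in one step after 5 days, and nuclei were counted. Relative viability is the nuclei count for treated wells divided by that for vehicle wells, reported as medians of duplicate plates.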

NCI-H358 = system: NCI-H358
Procedure, shortened: as §1

CAL-12T = system: CAL-12T
Procedure, shortened: as §1

NCI-H1975 = system: NCI-H1975
Procedure, shortened: as §1

NCI-H3122 = system: NCI-H3122
Procedure, shortened: as §1

NCI-H1993 = system: NCI-H1993
Procedure, shortened: as §1

HOP-62 = system: HOP-62
Procedure, shortened: as §1

NCI-H1666 = system: NCI-H1666
Procedure, shortened: as §1

HCC-78 = system: HCC-78
Procedure, shortened: as §1

NCI-H322M = system: NCI-H322M
Procedure, shortened: as §1

UMC-11 = system: UMC-11
Procedure, shortened: as §1

LXF-289 = system: LXF-289
Procedure, shortened: as §1

EPLC-272H = system: EPLC-272H
Procedure, shortened: as §1

NCI-H2126 = system: NCI-H2126
Procedure, shortened: as §1

NCI-H2085 = system: NCI-H2085
Procedure, shortened: as §1

COR-L 105 = system: COR-L 105
Procedure, shortened: as §1

NCI-H1755 = system: NCI-H1755
Procedure, shortened: as §1

ChaGo-K-1 = system: ChaGo-K-1
Procedure, shortened: as §1

ABC-1 = system: ABC-1
Procedure, shortened: as §1

NCI-H2023 = system: NCI-H2023
Procedure, shortened: as §1

NCI-H441 = system: NCI-H441
Procedure, shortened: as §1

NCI-H1915 = system: NCI-H1915
Procedure, shortened: as §1

HCC-15 = system: HCC-15
Procedure, shortened: as §1

**Q.** What does the source list for `COc1cc(N2CCC(C(N)=O)CC2)ccc1Nc1nc(N)c(Cl)c(Nc2ccccc2S(=O)(=O)C(C)C)n1` [HG-5-88-01] + COc1cc2c(Oc3ccc(NC(=O)C4(C(=O)Nc5ccc(F)cc5)CC4)cc3F)ccnc2cc1OCCCN1CCOCC1 [Foretinib] (partner 0.25 µM)?
**A.** relative viability (EMC-BAC-2; first compound 0.04 µM): 1.06; relative viability (EMC-BAC-2; first compound 0.1265 µM): 1.09; relative viability (EMC-BAC-2; first compound 0.4 µM): 0.973; relative viability (EMC-BAC-2; first compound 1.265 µM): 0.787; relative viability (EMC-BAC-2; first compound 4 µM): 0.795; relative viability (NCI-H358; first compound 0.04 µM): 0.676; relative viability (NCI-H358; first compound 0.1265 µM): 0.605; relative viability (NCI-H358; first compound 0.4 µM): 0.479; relative viability (NCI-H358; first compound 1.265 µM): 0.224; relative viability (NCI-H358; first compound 4 µM): 0.23; relative viability (CAL-12T; first compound 0.04 µM): 1.06; relative viability (CAL-12T; first compound 0.1265 µM): 1.19; relative viability (CAL-12T; first compound 0.4 µM): 1.05; relative viability (CAL-12T; first compound 1.265 µM): 0.963; relative viability (CAL-12T; first compound 4 µM): 0.945; relative viability (NCI-H1975; first compound 0.04 µM): 1.08; relative viability (NCI-H1975; first compound 0.1265 µM): 0.923; relative viability (NCI-H1975; first compound 0.4 µM): 0.814; relative viability (NCI-H1975; first compound 1.265 µM): 0.916; relative viability (NCI-H1975; first compound 4 µM): 0.397; relative viability (NCI-H3122; first compound 0.04 µM): 0.891; relative viability (NCI-H3122; first compound 0.1265 µM): 0.684; relative viability (NCI-H3122; first compound 0.4 µM): 0.205; relative viability (NCI-H3122; first compound 1.265 µM): 0.169; relative viability (NCI-H3122; first compound 4 µM): 0.15; relative viability (NCI-H1993; first compound 0.04 µM): 0.739; relative viability (NCI-H1993; first compound 0.1265 µM): 0.727; relative viability (NCI-H1993; first compound 0.4 µM): 0.725; relative viability (NCI-H1993; first compound 1.265 µM): 0.586; relative viability (NCI-H1993; first compound 4 µM): 0.623; relative viability (HOP-62; first compound 0.04 µM): 1.15; relative viability (HOP-62; first compound 0.1265 µM): 1.12; relative viability (HOP-62; first compound 0.4 µM): 1.01; relative viability (HOP-62; first compound 1.265 µM): 1.13; relative viability (HOP-62; first compound 4 µM): 1.3; relative viability (NCI-H1666; first compound 0.04 µM): 1.06; relative viability (NCI-H1666; first compound 0.1265 µM): 1.06; relative viability (NCI-H1666; first compound 0.4 µM): 1; relative viability (NCI-H1666; first compound 1.265 µM): 0.74; relative viability (NCI-H1666; first compound 4 µM): 0.677; relative viability (HCC-78; first compound 0.04 µM): 0.589; relative viability (HCC-78; first compound 0.1265 µM): 0.533; relative viability (HCC-78; first compound 0.4 µM): 0.583; relative viability (HCC-78; first compound 1.265 µM): 0.377; relative viability (HCC-78; first compound 4 µM): 0.464; relative viability (NCI-H322M; first compound 0.04 µM): 0.927; relative viability (NCI-H322M; first compound 0.1265 µM): 0.782; relative viability (NCI-H322M; first compound 0.4 µM): 0.635; relative viability (NCI-H322M; first compound 4 µM): 0.759; relative viability (UMC-11; first compound 0.04 µM): 1.09; relative viability (UMC-11; first compound 0.1265 µM): 1.07; relative viability (UMC-11; first compound 1.265 µM): 0.923; relative viability (UMC-11; first compound 4 µM): 0.371; relative viability (LXF-289; first compound 0.04 µM): 1.04; relative viability (LXF-289; first compound 0.1265 µM): 0.937; relative viability (LXF-289; first compound 0.4 µM): 0.977; relative viability (LXF-289; first compound 1.265 µM): 0.977; relative viability (LXF-289; first compound 4 µM): 1.05; relative viability (EPLC-272H; first compound 0.04 µM): 0.761; relative viability (EPLC-272H; first compound 0.1265 µM): 0.735; relative viability (EPLC-272H; first compound 0.4 µM): 0.593; relative viability (EPLC-272H; first compound 1.265 µM): 0.472; relative viability (EPLC-272H; first compound 4 µM): 0.0478; relative viability (NCI-H2126; first compound 0.1265 µM): 1.22; relative viability (NCI-H2126; first compound 0.4 µM): 1.05; relative viability (NCI-H2126; first compound 1.265 µM): 0.937; relative viability (NCI-H2126; first compound 4 µM): 1.23; relative viability (NCI-H2085; first compound 0.04 µM): 0.852; relative viability (NCI-H2085; first compound 0.1265 µM): 0.947; relative viability (NCI-H2085; first compound 0.4 µM): 0.907; relative viability (NCI-H2085; first compound 1.265 µM): 0.704; relative viability (NCI-H2085; first compound 4 µM): 0.807; relative viability (COR-L 105; first compound 0.04 µM): 1.05; relative viability (COR-L 105; first compound 0.1265 µM): 1.11; relative viability (COR-L 105; first compound 0.4 µM): 1.16; relative viability (COR-L 105; first compound 1.265 µM): 0.969; relative viability (COR-L 105; first compound 4 µM): 0.629; relative viability (NCI-H1755; first compound 0.04 µM): 0.876; relative viability (NCI-H1755; first compound 0.1265 µM): 0.895; relative viability (NCI-H1755; first compound 0.4 µM): 0.863; relative viability (NCI-H1755; first compound 1.265 µM): 0.858; relative viability (NCI-H1755; first compound 4 µM): 0.873; relative viability (ChaGo-K-1; first compound 0.04 µM): 0.761; relative viability (ChaGo-K-1; first compound 0.1265 µM): 1.03; relative viability (ChaGo-K-1; first compound 0.4 µM): 0.804; relative viability (ChaGo-K-1; first compound 1.265 µM): 0.942; relative viability (ChaGo-K-1; first compound 4 µM): 0.909; relative viability (ABC-1; first compound 0.04 µM): 0.931; relative viability (ABC-1; first compound 0.1265 µM): 1.16; relative viability (ABC-1; first compound 0.4 µM): 0.73; relative viability (ABC-1; first compound 1.265 µM): 0.719; relative viability (ABC-1; first compound 4 µM): 0.616; relative viability (NCI-H2023; first compound 0.04 µM): 1; relative viability (NCI-H2023; first compound 0.1265 µM): 0.899; relative viability (NCI-H2023; first compound 0.4 µM): 0.628; relative viability (NCI-H2023; first compound 1.265 µM): 0.399; relative viability (NCI-H2023; first compound 4 µM): 0.507; relative viability (NCI-H441; first compound 0.04 µM): 0.889; relative viability (NCI-H441; first compound 0.1265 µM): 1.06; relative viability (NCI-H441; first compound 0.4 µM): 1; relative viability (NCI-H441; first compound 1.265 µM): 0.771; relative viability (NCI-H441; first compound 4 µM): 0.839; relative viability (NCI-H1915; first compound 0.04 µM): 1.22; relative viability (NCI-H1915; first compound 0.1265 µM): 1.22; relative viability (NCI-H1915; first compound 0.4 µM): 1.04; relative viability (NCI-H1915; first compound 1.265 µM): 1.2; relative viability (NCI-H1915; first compound 4 µM): 1.04; relative viability (HCC-15; first compound 0.04 µM): 1.02; relative viability (HCC-15; first compound 0.1265 µM): 1.01; relative viability (HCC-15; first compound 0.4 µM): 0.946; relative viability (HCC-15; first compound 1.265 µM): 0.867; relative viability (HCC-15; first compound 4 µM): 0.703
